These results are taken from patent US20180296507A1, “REDOX-ACTIVATED GLYCOCONJUGATED PROCHELATORS” (ARIZONA BOARD OF REGENTS ON BEHALF OF THE UNIVERSITY OF …, priority 2013, published 2018).

Several values for one entry are separate records, joined by “and”; a condition that tells them apart may be missing. Equal values may be shown once. Entries after “also recorded” stand apart in the source; their conditions may differ.

The test system of data set [1] is intracellular iron. The experiment in a line: EPR experiments in whole leukemia cells. In kind it is cell-based. The text has this: Chelators (e.g., TC1SH, TC2SH, TC3SH) are released upon reduction of the disulfide bond. The reduced species (e.g., TC1SH, TC2SH, TC3SH) are tridentate iron chelators forming complexes of 2:1 ligand-to-metal stoichiometry. Magnetic measurements and X-ray crystallographic data on the resulting iron complexes (see FIG. 4, BF4^− counterion not shown) indicate that these chelators stabilize iron centers as low-spin Fe(III) species. […] The present invention is not limited to chelators that stabilize iron centers as low-spin Fe(III) species.

The test system of data set [2] is intracellular iron. The experiment in a line: Calcein-based iron displacement assay in suspended Jurkat cells. In kind it is cell-based. The text has this:
In some embodiments, intracellular activation and iron chelation may be investigated using a calcein-based iron displacement assay. This assay may confirm the activation of the prochelators for iron scavenging, and may also indicate the timeframe for cellular entry and iron binding. […] Data such as this may be collected for particular glycoconjugates to assess the duration of uptake and in particular to determine differences among systems carrying different connectivity (e.g., linker, position of glucose substitution) between the sugar and the prochelator units.

The subject of data set [3] is glucose transporters. As to the kind of experiment: Competition assay of transporter-mediated uptake with 2-NBDG in Caco-2 cells (flow cytometry). In kind it is cell-based, human. The note with it: compound 50 μM; for Competition with 2-NBDG (decrease in intracellular fluorescence): CACO-2 cells, 30 min, 2-NBDG 200 μM; for Competition with 2-NBDG for transporter-mediated uptake: Caco-2 cells, 2-NBDG 100 μM, 40 min. The protocol:
Co-treatment with glucose (10 mM) and glucose transporter (GLUT1) inhibitor phloretin (100 μM, 30 min) are employed as positive controls. Experiments were conducted in triplicate and values shown are averages±standard deviation. Statistical analysis: ** p<0.01, *** p<0.001 as compared to the control.
(§1) The competition assays used fluorescently labeled glucose bioprobe 2-(N-(7-nitrobenz-2-oxa-1,3-diazol-4-yl)amino)-2-deoxyglucose (2-NBDG). […] Without wishing to limit the present invention to any theory or mechanism, it is believed that the glycoconjugation may offer an advantageous increase in cancer cell specificity due to the conjugate being a substrate for the GLUT1 transporter protein and thus taking advantage of its overexpression in cancer cells as compared to normal cells.
Competition assay of transporter-mediated uptake. Caco-2 cells were plated at 1×10^6 cells per well in 6-well plates and allowed to adhere for 36 hours. Growth media were then removed and cells were incubated for 12 hours in glucose-free EMEM. […] As a positive control, after starvation cells were treated with 100 μM phloretin for 30 minutes, then treated with EMEM containing 100 μM 2-NBDG for 40 minutes. Cells were washed with PBS (1 mL) and detached by addition of Trypsin-EDTA (400 μL) and incubation for 3 minutes at 37° C. Following addition of EMEM (1 mL), the cell suspensions were centrifuged at 125 g for 10 minutes. The resulting pellets were suspended in PBS (0.5 mL) and transferred to a flow cytometry tube. Cells were stored on ice and analyzed by flow cytometry within 1 hour. Data are obtained as the average of three sets of geometric means of the flow cytometry histogram, and plotted as the percent difference from the control plus/minus the standard deviation between three values.
(Caco-2 monolayers are a common model of the intestinal barrier.)

In another data set the test system is Caco-2 cells. As to the kind of experiment: MTT cytotoxicity assay in Caco-2 cells. In kind it is cell-based, human. The note with it: for IC50: 72 h exposure, average ± SD of triplicate. The protocol: (§2) Cell culture. Caco-2 (ATCC® HTB-37™) colorectal adenocarcinoma and CCD-18Co (ATCC® CRL-1459™) normal colon fibroblasts were cultured under a 5% CO2 humidified atmosphere at 37° C. in Eagle's Minimal Essential Medium (EMEM) supplemented with 10% fetal bovine serum (FBS), glutamine (2 mM), sodium pyruvate (1 mM), sodium bicarbonate (1.5 g/L), penicillin (100 units/mL), streptomycin (100 μg/mL) and human holo-transferrin (1.25 μM (1 mg/10 mL) prior to use. Flow cytometric analysis was performed at the University of Arizona Cytometry Core Facility (Arizona Cancer Center/Arizona Research Laboratories) using a FACSCanto II flow cytometer (BD Biosciences, San Jose, Calif.) equipped with an air-cooled 15-mW argon ion laser tuned to 488 nm. List mode data files consisting of 10,000 events gated on FSC (forward scatter) vs SSC (side scatter) were acquired and analyzed using CellQuest PRO software (BD Biosciences, San Jose, Calif.). Appropriate electronic compensation was adjusted by acquiring cell populations stained with each dye/fluorophore individually, as well as an unstained control.
(§3) Cytotoxicity assays. The cytotoxicity of the prochelators were assessed using MTT (3-(4,5-dimethylthiazol-2-yl)-2,5-diphenyl-tetrazolium bromide) assays after 72-hour incubations (Table 2). In all cases, the prochelator conjugates are more toxic (lower IC50 values) in the malignant Caco-2 cells than in the normal CCD18-co cells.
(§4) MTT (3-(4,5-dimethylthiazol-2-yl)-2,5-diphenyltetrazolium bromide) viability assays were conducted by standard methods with slight modifications. Cells were seeded at 4000 cells per well for Caco-2 and 10,000 cells per well for CCD18-co and allowed to attach for 24 h. Test compounds dissolved in DMSO were diluted in EMEM to the specified concentration (with final DMSO concentration limited to 0.1%). Cells were incubated in the presence of the test compounds for 72 h, then the MTT solution (4 mg/mL, 10 μL) was added to each well and incubated for 4 h. Following media removal, DMSO (100 μL) was added to each well to dissolve the purple formazan crystals and the plates were incubated for an additional 30 minutes. Absorption at 560 nm was recorded and data were analyzed using logarithmic fits to obtain IC50 values. Each experiment was conducted in triplicate, and values are given as averages plus/minus standard deviation.
In general terms: Formazan colour is commonly taken as a measure of viable cells.

A further data set concerns CCD18-co cells. The experiment in a line: MTT cytotoxicity assay in CCD18-co cells. In kind it is cell-based, human. The conditions noted are these: 72 h exposure, average ± SD of triplicate. The protocol:
as §2, §3, §4

Data set [4] in a line: Aqueous solubility by UV-Vis absorption spectroscopy of saturated buffer solutions. In kind it is physicochemical. The conditions noted are these: 5.0 mM TRIS buffer, pH 7.40; average ± SD of triplicate. The protocol: Solubility measurements. The effect of the sugar motif on the aqueous solubility of the synthesized prochelators was investigated by UV-Visible absorption spectroscopy. Determination of molar extinction coefficients of each compound in aqueous buffer (5.0 mM TRIS, pH 7.40) allowed measurement of their concentration at saturation. Stock solutions were prepared in DMSO and diluted in TRIS buffer (5.0 mM, pH 7.40). Buffer solutions containing identical amounts of DMSO (0.3% v/v) were used to obtain blank spectra. […] For solubility measurements, saturated solutions were centrifuged for 20 minutes at 3,200 rpm to remove any precipitate and concentrations were determined by UV-Vis spectroscopy. […] Measurements were done in a set of triplicates.

Data set [5] concerns glucose transporters. As to the kind of experiment: Competition assay with 2-NBDG in MDA-MB-231 cells (flow cytometry). In kind it is cell-based. The note with it: compound 25-100 μM, 30 min, 2-NBDG 200 μM.
Excerpt: as §1
In general terms: In flow cytometry, cells or beads pass a laser one at a time.

In the case of `S=C(N/N=C/c1ccccc1SSc1ccccc1/C=N/NC(=S)Nc1ccccc1)Nc1ccccc1` [(TC1S)2], the “Intracellular reduction/activation and formation of low-spin Fe(III) complex” value in the data set with intracellular iron [1] was “direct evidence for both the reduction/activation”. Also, the “Timeframe of passive diffusion, activation and iron coordination” value in the data set with intracellular iron [2] is “within minutes”.
With `O=C(CCSSc1ccccc1C=NNC(=S)Nc1ccccc1)OCC1OC(O)C(O)C(O)C1O` (stereo not shown) [Compound G6TC1], the “Competition with 2-NBDG (decrease in intracellular fluorescence)” value in the data set with glucose transporters [3] was “better competitors of 2-NBDG; also recorded: over three times the decrease due to G2TC1”.
With `COc1ccc(NC(=S)NN=Cc2ccccc2SSCCC(=O)OCC2OC(O)C(O)C(O)C2O)cc1` (stereo not shown) [Compound M6TC4], the 50% inhibitory concentration (IC50) (usually the midpoint of a concentration-inhibition curve) turned out to be 10.1 ± 0.3 µM in the data set on Caco-2 cells (MTT) and 62.2 ± 0.1 µM in the data set with CCD18-co cells. Also, the “Competition with 2-NBDG for transporter-mediated uptake” value in the data set with glucose transporters [3] was “competed successfully with 2-NBDG”.
As to `COC(=O)CCSSc1ccccc1C=NNC(=S)Nc1ccc(OC)cc1` [ATC4], the “Times more toxic in Caco-2 cells than in CCD18-co cells” value in the data set with Caco-2 cells (MTT, 72 h) was 3 times. Besides, the IC50 in the data set with Caco-2 cells (MTT) amounted to 8.1 ± 0.2 µM; with CCD18-co cells, 27.5 ± 0.4 µM. Moreover, in the data set with Caco-2 cells (ratio of IC50 in normal CCD18-co cells relative to malignant Caco-2 cells), the “Therapeutic Index” value turned out to be 3.4 ± 0.1. Further, in data set [4], the Concentration at saturation is 11 ± 1 μM and 4.7 ± 0.5 mg/L.
Take `COc1ccc(NC(=S)NN=Cc2ccccc2SSc2ccccc2C=NNC(=S)Nc2ccc(OC)cc2)cc1` [(TC4-S)2]: in data set [4], the Concentration at saturation was <5 μM and <3 mg/L.
On to `COc1ccc(NC(=S)NN=Cc2ccccc2SSCCC(=O)NC2C(O)OC(CO)C(O)C2O)cc1` (stereo not shown) [GA2TC4], for which the “Competition with 2-NBDG for transporter-mediated uptake” value in the data set on glucose transporters [3] is on record as “did not compete for uptake with 2-NBDG”. The compound also yielded an IC50 with CCD18-co cells of 22.5 ± 0.8 µM.
Regarding `O=C(CCSSc1ccccc1C=NNC(=S)Nc1ccccc1)OCC1OC(O)C(O)C(O)C1O` (stereo not shown) [Compound M6TC1], in the data set with glucose transporters [3], the “Competition with 2-NBDG (decrease in intracellular fluorescence)” value is listed as “better competitors of 2-NBDG”.
With `COc1ccc(NC(=S)NN=Cc2ccccc2SSCCC(=O)OCC2OC(O)C(O)C(O)C2O)cc1` (stereo not shown) [Compound G6TC4], the IC50 in the data set with Caco-2 cells (MTT) stood at 6.9 ± 0.4 µM; in the data set on CCD18-co cells, 76 ± 2 µM. For the same compound, the “Competition with 2-NBDG for transporter-mediated uptake” value in the data set on glucose transporters [3] is given as “competes strongly with 2-NBDG for uptake; also recorded: competes aggressively with fluorescent glycoconjugate 2-NBDG”.
As to `O=C(CCSSc1ccccc1C=NNC(=S)Nc1ccccc1)NC1C(O)OC(CO)C(O)C1O` (stereo not shown) [Compound G2TC1], in the data set on glucose transporters [5], the “Uptake of 2-NBDG in the presence of compound” value is listed as “decreased uptake of the fluorescent glycoconjugate”.
